Reference: patent US9247750B2, “Polyenylcyclopropanecarboxylic esters with high insecticidal activity” (Endura S.P.A., priority 2007, dated 2016)

Tests used:
[1] = test system: Aedes aegypti; test: Insecticide effectiveness in the vapour phase against mosquitoes, impregnated paper unit in 20 m^3 room (Example 9); type: in vivo; details: 5 mg/unit; for % mortality 24 h: 24th hour from start of test; for % Knock-down 8 h: at end of 8th hour; for Knock-down time KT10 / Knock-down time KT50 / Knock-down time KT90: average of 3 cages
Procedure: (§1) Test units consisting of a paper support 20 cm×10 cm in size were impregnated with the compound of examples 3, 7 and 8 and, for comparative purposes, with the reference compounds transfluthrin and metofluthrin, at an amount of 5.00 mg/unit for each compound (pure). Using a common laboratory stand, the test unit was placed at a height of about 30 cm from the ground along one side of a 20 m^3 room (L 3.00 m×D 2.49 m×H 2.69 m). In order to homogenize the insecticidal air within the room, a small electric fan was placed on the floor diagonal to the surface of the unit, in the nearest corner at a distance of about 50 cm from the unit. Three metal cages (L 8.4 cm×Ø 8.0 cm×mesh 1.0 mm) for every mosquito species, each containing 20 3-4 day old individuals of mixed sex, were placed along the other three sides of the room, at a height of 1.80 m from the ground and at a distance of 0.45 m from the respective walls. During the test the room was kept closed and temperature and humidity were controlled (T 23-26° C., RH 49-61%). The fan was switched on and left on for 8 continuous hours. The times needed to reach 10%, 50% and 90% insect knock-down (KT10, KT50 and KT90, respectively) were recorded.
(§2) Every 2 hours and up to the 6th hour after the fan was switched on, new cages were introduced containing insects (set of 3 cages for each species).
(§3) At the end of the 8th hour, the percentage of insects knocked down in all the cages was determined, then the insects were removed from the room and transferred into an uncontaminated atmosphere within closed containers containing a sugary solution. The percentage mortality was recorded at the 24th hour from the start of the test.
(§4) The results obtained are summarized in tables 1 and 2 and the data are averages for the 3 cages.

[2] = test system: Culex quinquefasciatus; test: as above; type: in vivo; details: 5 mg/unit; for % mortality 24 h: 24th hour from start of test; for % Knock-down 8 h: at end of 8th hour; for Knock-down time KT10 / Knock-down time KT50 / Knock-down time KT90: average of 3 cages
Procedure: as §1, §2, §3, §4

C=CC=C[C@@H]1[C@@H](C(=O)OCc2c(F)c(F)c(COC)c(F)c2F)C1(C)C (mixture of isomers) [Example 8, 2,3,5,6-tetrafluoro-4-methoxymethyl benzyl(1R,3R)-3-((E/Z)-Buta-1,3-dienyl)-2,2-dimethylcyclopropane-1-carboxylate]
% mortality 24 h ([1]; insect exposure after 0 hours): 100%
% Knock-down 8 h ([1]; insect exposure after 0 hours): 100%
Knock-down time KT10 ([1]; insect exposure after 0 hours): 22 min
Knock-down time KT50 ([1]; insect exposure after 0 hours): 31 min
Knock-down time KT90 ([1]; insect exposure after 0 hours): 40 min
% mortality 24 h ([1]; insect exposure after 2 hours): 100%
% Knock-down 8 h ([1]; insect exposure after 2 hours): 100%
Knock-down time KT10 ([1]; insect exposure after 2 hours): 12 min
Knock-down time KT50 ([1]; insect exposure after 2 hours): 29 min
Knock-down time KT90 ([1]; insect exposure after 2 hours): 41 min
% mortality 24 h ([1]; insect exposure after 4 hours): 100%
% Knock-down 8 h ([1]; insect exposure after 4 hours): 100%
Knock-down time KT10 ([1]; insect exposure after 4 hours): 18 min
Knock-down time KT50 ([1]; insect exposure after 4 hours): 32 min
Knock-down time KT90 ([1]; insect exposure after 4 hours): 50 min
% mortality 24 h ([2]; insect exposure after 0 hours): 83%
% Knock-down 8 h ([2]; insect exposure after 0 hours): 100%
Knock-down time KT10 ([2]; insect exposure after 0 hours): 35 min
Knock-down time KT50 ([2]; insect exposure after 0 hours): 44 min
Knock-down time KT90 ([2]; insect exposure after 0 hours): 70 min
% mortality 24 h ([2]; insect exposure after 2 hours): 70%
% Knock-down 8 h ([2]; insect exposure after 2 hours): 100%
Knock-down time KT10 ([2]; insect exposure after 2 hours): 39 min
Knock-down time KT50 ([2]; insect exposure after 2 hours): 50 min
Knock-down time KT90 ([2]; insect exposure after 2 hours): 68 min
% mortality 24 h ([2]; insect exposure after 4 hours): 61%
% Knock-down 8 h ([2]; insect exposure after 4 hours): 100%
Knock-down time KT10 ([2]; insect exposure after 4 hours): 39 min
Knock-down time KT50 ([2]; insect exposure after 4 hours): 53 min
Knock-down time KT90 ([2]; insect exposure after 4 hours): 66 min
